Assay [1] can be described thus: Hair tensile strength test (digital force gauge). To be noted: for % Increase in tensile strength relative to control: control 100% DI water. The procedure:
(§1) Hair tensile strength can be measured according to the following general method. “Test Compound” can be any compound described herein. • 1. Collect about 3 hair strands from tress; • 2. Clamp both ends of a single hair strand and pull taut; • 3. Line up ruler with hair strand and cut a 2.75 cm section; • 4. Repeat steps 2-3 until 30 segments are produced; • 5. Create a specific w/w % solution of deionized water and Test Compound (e.g., Compound (1)) in 50 ml beaker; • 6. Saturate the hair for a specific amount of time in the solution, then remove and dry for 30 minutes; • 7. Using a 4 decimal precision balance, weigh all hairs at once and calculate the average; • 8. Insert hair into the digital force gauge; • 9. Separate the two clamps until the hair has broken into two separate pieces; and • 10. Note the maximum force required to break the hair as well as the distance the digital force gauge has moved.
(§2) Control experiments can also be conducted according to the procedure described above, for example by omitting Test Compound from the solution or replacing Test Compound with compound for comparison (e.g., glycolic acid).

The nature of assay [2]: Hair elongation percentage test. As to conditions: for % Increase in elongation percentage relative to control: control 100% DI water. The procedure: as §1, §2
Assay [3] in a line: Elongation of bleached hair at break stress (Formulation 1). To be noted: 5 w/w % solution in DI water. The procedure: A combination formulation (Formulation 1) comprising Compound (1) and glycolic acid as an aqueous mixture was tested. Formulation 1 comprises a 1:1 ratio (by weight) of Compound (1) to glycolic acid. To prepare Formulation 1, a mixture containing 50 w/w % Compound (1) and 50 w/w % glycolic acid (crystalline) was prepared (Mixture A). Mixture A was diluted with deionized (DI) water (aqua) until the solution was 5 w/wt % Mixture A.
Formulation 1 was independently analyzed to determine whether elongation of bleached hair at break stress increased compared to both control and glycolic acid solutions. The glycolic acid solution was a 5 w/w % glycolic acid solution in DI water. The control was DI water alone.

[4] abbreviates: 1 w/w % solution in deionized water.
The mark [5] stands for this setting: 2.5 w/w % solution in deionized water.

Consider `N[C@@H](CO)C(=O)OCC(=O)O` [Compound (1)], for which the “Tensile strength (Gf/Denier)” value in assay [1] (setting [4]) turned out to be 1.210 gf/denier; in assay [1] (setting [5]), 1.490 gf/denier. Also, the “% Increase in tensile strength relative to control” value in assay [1] (1 w/w % solution) is 16.9%; in assay [1] (2.5 w/w % solution), 43.9%. For the same molecule, in assay [1] (2.5 w/w % solution vs 2.5 w/w % glycolic acid, FIG. 2), the “Tensile strength of hair compared to glycolic acid (in words)” value is given as “significantly increases tensile strength of hair as compared to glycolic acid”. Moreover, the “Tensile strength of hair relative to control (in words)” value in assay [1] (control hair treated 100% DI water, FIG. 1) is listed as “significantly increases tensile strength of hair, relative to control”. Further, the Elongation % is reported as 25.4% in assay [2] (setting [4]) and 29.9% in assay [2] (setting [5]). Further, the results for the “% Increase in elongation percentage relative to control” value in assay [2] (1 w/w % solution) and in assay [2] (2.5 w/w % solution) were 0.67% and 18.51%, respectively. The “Elongation percentage of hair compared to glycolic acid (in words)” value in assay [2] (2.5 w/w % solution vs 2.5 w/w % glycolic acid, FIG. 4) was “significantly increases elongation percentage of hair”. For the same molecule, in assay [2] (control hair treated 100% DI water, FIG. 3), the “Elongation percentage of hair relative to control (in words)” value is “increases elongation percentage of hair”.

Regarding `O=C(O)CO` [Glycolic Acid, glycolic acid, reference compound], in assay [1] (setting [5]), the “Tensile strength (Gf/Denier)” value came to 1.219 gf/denier. Moreover, in assay [1] (2.5 w/w % solution), the “% Increase in tensile strength relative to control” value is recorded as 17.8%. The molecule also displayed an Elongation % in assay [2] (setting [5]) of 26.71%. Besides, the “% Increase in elongation percentage relative to control” value in assay [2] (2.5 w/w % solution) turned out to be 5.87%. Also, the “Mean Elongation %” value in assay [3] is on record as 55.3%. Besides, the “Difference from Control (%)” value in assay [3] (control DI water) was found to be 7.38%.

Source of the values: patent US20240252410A1, “COMPOUNDS FOR USE IN KERATIN TREATMENT” (CrossChem Limited, priority 2023, published 2024).
